US20210196730A1, “COMPOUND AND USE THEREOF” (priority 2018, published 2021)
Read-outs that look alike come from different tables or passages of the source.

Experiments:
[1] = system: pancreatic stellate cells; test: Smooth actin and collagen in pancreatic stellate cells alone (immunofluorescence); assay type: cell-based, KPC mice; conditions: 24 hours, TP 10 nM, Cal 100 nM, TP/Cal 10/100 nM, Callide^NP 100 nM
Excerpt: (§1) Experimental materials: pancreatic stellate cells and pancreatic cancer cells cultured in transgenic mice. Among them, pancreatic cancer cells were transfected with luciferase gene by lentivirus transfection method.
(§2) Experimental method: in vitro co-culture, immunofluorescence histochemical analysis
(§3) Experimental process: the tumor tissues were taken from KPC mice that spontaneously developed with tumors, and the tumor tissues were dissected, and primary pancreatic stellate cells and pancreatic cancer cells were isolated by physical in vitro disruption and enzymatic hydrolysis, and cultured.
Pancreatic stellate cells alone were cultured in a 12-well plate, 100,000 cells per well, treated with TP (10 nM), Cal (100 nM), TP/Cal (10/100 nM), Callide^NP (100 nM) for 24 hours, and then contents of smooth actin and collagen of the cells in each well were analyzed with immunofluorescence staining.

[2] = system: pancreatic stellate cells and pancreatic cancer cells; test: Smooth actin and collagen in co-cultured pancreatic stellate cells and pancreatic cancer cells (immunofluorescence); assay type: cell-based, KPC mice; conditions: co-culture 1:1, 24 hours; TP 10 nM, Cal 100 nM, TP/Cal 10/100 nM, Callide^NP 100 nM
Excerpt: as §1, §2, §3
Pancreatic stellate cells and pancreatic cancer cells were cultured in a 12-well plate at a ratio of 1:1, with a total of 100,000 cells per well, using TP (10 nM), Cal (100 nM), treated with TP/Cal (10/100 nM), and Callide^NP (100 nM), and incubated for 24 hours, and then the contents of smooth actin and collagen of the cells in each well were analyzed with immunofluorescence staining.

MIA PaCa-2 cell line = test: In vivo anti-tumor effect, mouse subcutaneous tumor model based on MIA PaCa-2; conditions: for anti-tumor effect (tumor growth): compared with saline, TP 0.3, Cal 0.3, TP/Cal 0.3/0.35, Callide^NP 0.3 mg/kg (as TP), tail vein once a week
Description: Experimental Material: MIA PaCa-2 Cell Line
Experimental method: establishing a mouse subcutaneous tumor model based on the MIA PaCa-2 cell line, and evaluating an inhibitory effect on tumor as well as toxic and side effect of each compound of the experimental group after administration.
Experimental process: 0.1 ml of MIA PaCa-2 cell suspension was injected into axilla of the mice, and the growth of tumor was monitored. […] Dosages of administration: TP (0.3 mg/kg), Cal (0.3 mg/kg), TP/Cal (0.3/0.35 mg/kg), Callide^NP (0.3 mg/kg, administration dosage after it was theoretically completely degraded to TP), administered via tail vein injection once a week. The tumor size was measured every two days.

[3] = system: pancreatic stellate cells and pancreatic cancer cells co-implanted orthotopic model; assay type: in vivo; conditions: for tumor suppression effect: TP 0.3, Cal 0.35, TP/Cal 0.3/0.35, Callide^NP 0.6 mg/kg, once every two days, 7 times
Description: Experimental materials: pancreatic stellate cells, pancreatic cancer cells transfected with luciferase; nude mice: strain Blab/C nude, 6-8 weeks old.
Experimental method: suspensions of pancreatic stellate cells and luciferase-transfected pancreatic cancer cells were mixed uniformly at a ratio of 1:1, and inoculated into the pancreas at a density of 10,000 cells/40 μL with an inoculation volume of 40 μL.
Experimental process: the two kinds of cells were digested and centrifuged, resuspended with PBS and mixed at a ratio of 1:1, and then the cell mixture was mixed with Matrigel at a ratio of 1:1 and pipetted uniformly. Nude mice underwent relevant operations under the premise of review by the Ethics Committee of Tsinghua University. […], of the uniformly pipetted cell suspension was injected into the pancreas with an insulin needle, the wound was sutured, and a sedative was injected subcutaneously. About one week after the cell injection, each mouse was intraperitoneally injected with 0.1 ml of […] solution. After 10 min, the mice were anesthetized with isoflurane, and an intensity of the fluorescent signal in the pancreas of the mice was detected with a live imaging system for small animal. Subsequently, the mice were randomly divided into groups, 7 mice in each group, and TP (0.3 mg/kg), Cal (0.35 mg/kg), TP/Cal (0.3/0.35 mg/kg), and Callide^NP (0.6 mg/kg) were administrated, respectively, once every two days for a total of 7 times. After each administration, the mice were weighed. After 4 times of administration, the intensity of the fluorescent signal in the pancreas of mice was detected with the live imaging system for small animal. After the administrations were all finished, the intensity of the fluorescent signal in the pancreas of the mice was detected again with the live imaging system for small animal, while recording a survival rate of mice. After the experiment, the tumor tissues of the mice were taken, and an expression of smooth actin and collagen in the tumor tissues was detected by tissue immunofluorescence staining (the experiment results are shown in FIG. 6).

[4] = system: pancreatic cancer cell lines MIA PaCa-2, PANC-1, SW1990, and SW1990-GEM; test: Cytotoxicity experiment of Callide (DNA assay method); assay type: cell-based; conditions: 24 h
Description: Experimental materials: four pancreatic cancer cell lines, i.e., MIA PaCa-2, PANC-1, SW1990, and SW1990-GEM. Whole cell culture medium, microplate reader
Experimental Method: DNA Assay Method
Experimental process: pancreatic cancer cells were cultured, digested, resuspended into a cell suspension with medium, and seeded into 96-well plates, with 4000 cells per well. The experimental components are […], i.e., TP group, Cal group, TP and Cal physical mixed group (TP/Cal), Callide-DMSO without esterase group (Callide without PLE), Callide-DMSO with 10 U esterase group (Callide with 10 U PLE), Callide^NP without esterase group (Callide^NP without PLE), and Callide^NP with 10 U esterase group (Callide^NP with 10 U PLE). For each group, 8 concentrations of 5 nM, 10 nM, 20 nM, 40 nM, 80 nM, 100 nM, 200 nM, and 400 nM were prepared, and each concentration was repeated in six wells. After 24 h of administration, the drug solution was removed by suction, washed with PBS twice, added […], analyzed by a microplate reader, and plotted a relative survival rate curve of cells to calculate an IC50 of each compound.

[5] = Toxicity experiment on mice in short- and long-term administration; conditions: mouse, in vivo
Description: Experimental Material: BALB/C Mice
Experimental method: BALB/C mice were divided into 5 groups, including a saline control group and four drug administration groups of TP, Cal, TP/Cal, and Callide^NP groups. 5 mice in the control group, and 5 mice for each of 3 dosages, i.e., high, medium and low dosages in each experimental group, for a total of 65 mice. Dosages of administration: TP (0.3 mg/kg, 0.6 mg/kg, 1.2 mg/kg); Cal (0.6 mg/kg, 1.2 mg/kg, 1.8 mg/kg); TP/Cal (0.6 mg/kg, 1.2 mg/kg, 1.8 mg/kg); and Callide^NP (0.6 mg/kg, 1.2 mg/kg, 1.8 mg/kg), were administered once a week via tail vein injection.

porcine liver esterase = test: In vitro degradation experiment of Callide (HPLC); assay type: in vitro ADME; conditions: absence of porcine liver esterase
Description: Experimental materials: phosphate buffer (PBS, Ph=7.2 to 7.4), porcine liver esterase, high performance liquid chromatography (HPLC)
Experimental Method: HPLC Method
Experimental process: 5 microliters of 1 mg/ml Callide (ethanol solution for solubilizing) in 5 ml of PBS buffer with or without porcine liver esterase, and stirred at 37 degrees Celsius for 1 min, 5 min, 10 min, 30 min, 1 h, 2 h, 4 h, 8 h, 12 h, 24 h, 48 h, respectively, 200 microliters of the solution were taken, filtered, and a concentration of Callide or calcipotriol in the solution was determined by HPLC.

[6] = system: humanized pancreatic cancer tissue; test: In vivo anti-tumor effect, mouse subcutaneous tumor model of humanized pancreatic cancer tissue
Description: Experimental material: humanized pancreatic cancer tissue
Experimental method: establishing a mouse subcutaneous tumor model based on humanized pancreatic cancer tissue
Experimental process: a mouse subcutaneous tumor model of humanized pancreatic cancer tissue was established, TP (0.3 mg/kg) and Callide^NP (0.3 mg/kg, administration dosage after it was theoretically completely degraded to TP) were administrated via tail vein injection, once a day. One week later, the dosage of Callide^NP was increased to 0.6 mg/kg.

[7] = Rat PK experiment of Callide^NP (chromatography-mass spectrometry); assay type: in vivo; conditions: SD rats, Callide^NP 0.3 and 0.6 mg/kg; for concentration of free TP in plasma / plasma half-life: TP 0.3 mg/kg
Description: Experimental materials: rats, strain SD, 6-9 weeks old. Analytical instruments: Agilent 1290/6460 triple quadrupole mass spectrometer, made in the United States.
Experimental Method: Chromatography-Mass Spectrometry
Experimental process: 12 SD rats were randomly divided into 4 groups, with 3 rats in each group. TP (0.3 mg/kg), TP/Cal (0.3/0.35 mg/kg), Callide^NP (0.3 mg/kg), Callide^NP (0.6 mg/kg) were administered respectively. 300 μl of blood of each rat was collected through the orbit at 5 min, 15 min, 30 min, 1 h, 2 h, 4 h, and 8 h, respectively, centrifuged at 10000 rpm at 4° C., and the supernatant plasma was collected. The plasma was extracted with ethyl acetate/water, vortexed, sonicated, centrifuged at 4° C., the supernatant was evaporated to dryness under the protection of nitrogen, and then dissolved in mobile phase acetonitrile/water. After centrifugation, the supernatant was taken and injected.

C=C1/C(=C\C=C2/CCC[C@@]3(C)C2CCC3[C@@H](C)/C=C/[C@@H](O)C2CC2)C[C@@H](O)C[C@@H]1O (some centres unmarked) [Cal, calcipotriol]
toxic reactions / adverse states after administration (mouse, in vivo): none of the mice in the Cal group showed the above-mentioned adverse symptoms
contents of smooth actin and collagen [1]: decreased
expression levels of related proteins (smooth actin and collagen) [2]: significantly reduced
anti-tumor effect (tumor growth) (MIA PaCa-2 cell line): no anti-tumor effect
tumor suppression effect [3]: no tumor suppression effect
survival rate of mice ([3]; compared with the control group): no significant difference
fluorescent signal of pancreatic cancer cells ([3]; live imaging, compared with the control group): no significant difference
killing effect on cancer cells ([4]; within the dosage range studied (5 nM to 400 nM)): no killing effect on cancer cells

C=C1/C(=C\C=C2/CCC[C@@]3(C)C2CCC3[C@@H](C)/C=C/C(OC(=O)CCC(=O)O[C@@H]2[C@@]3(C(C)C)O[C@H]3[C@@H]3O[C@]34[C@]23O[C@H]3C[C@H]2C3=C(CC[C@@]24C)C(=O)OC3)C2CC2)C[C@@H](O)C[C@@H]1O (some centres unmarked) [Callide]
long-term toxicity compared with TP [5]: significantly reduced
degradation of Callide (porcine liver esterase; PBS, 37 degrees Celsius): could not be degraded
concentration of Callide in the solution (porcine liver esterase; time extended to 48 h): remained unchanged
apoptosis of tumor cells ([6]; immunohistochemical staining): accompanied by apoptosis of tumor cells
fibrin content of the tumor tissue ([6]; immunohistochemical staining): significantly reduced
average plasma residence time [7]: prolonged
concentration of free TP in plasma [7]: significantly reduced
plasma half-life [7]: prolonged
cell killing effect ([4]; with 10 U porcine liver esterase): produce cell killing effect
toxic and side effects on cells ([4]; without the addition of esterase): no toxic and side effects on cells

CC(C)[C@]12O[C@H]1[C@@H]1O[C@]13[C@]1(O[C@H]1C[C@H]1C4=C(CC[C@@]13C)C(=O)OC4)[C@@H]2O [TP, triptolide]
mortality (1.8 mg/kg, single administration): all mice died after a single administration
morphology of spermatogonia and spermatocytes (TP group): severely damaged
organs (anatomical results) (TP group): different degrees of necrosis
relative weight of the testis (TP group): significantly reduced
body weight (especially 1.2 mg/kg of TP): lost their weight significantly
skin at the injection site on the tail (especially 1.2 mg/kg of TP): severe skin ulceration
toxic reactions / adverse states after administration (high, medium and low dosages, once a week via tail vein injection): obvious toxic reactions
contents of smooth actin and collagen [1]: not significantly different
inhibitory effect on tumor growth ([6]; first week, 0.3 mg/kg once a day via tail vein): significant inhibitory effect on tumor growth
expression levels of related proteins (smooth actin and collagen) [2]: did not change significantly
concentration of free TP in plasma [7]: high
plasma half-life [7]: short
anti-tumor effect (tumor growth) (MIA PaCa-2 cell line): inhibits tumor growth more effectively than Callide^NP
tumor size relative to other groups (MIA PaCa-2 cell line; mouse, in vivo): smaller than that of the TP/Cal and Callide^NP groups
tumor weight (MIA PaCa-2 cell line; tumors isolated and weighed after dissection): significantly less weight than the control group
toxicity ([3]; TP 0.3 mg/kg): obvious toxicity
tumor suppression effect [3]: insignificant tumor suppression effect
deaths ([3]; after seven administrations, TP 0.3 mg/kg): one mouse died
body weight of the mice ([3]; mouse, in vivo): significantly reduced
IC50 ([4]; Pancreatic cancer cell, all four types of pancreatic cancer cells): 20 nM
